Calls of active or inactive are those of the source. The rule behind the calls is not given here.
Experiments:
MCF7 = test: Cytotoxicity against MCF7 cells; type: cell-based; conditions: human
NCI-H460 = test: Cytotoxicity against NCI-H460 cells; type: cell-based; conditions: human
SF-268 = test: Cytotoxicity against SF268 cells; type: functional, cell-based; conditions: Homo sapiens
Saccharomyces cerevisiae [1] = test: Cytotoxicity against Saccharomyces cerevisiae rad14; type: organism-based; conditions: in vivo
Saccharomyces cerevisiae [2] = test: Cytotoxicity against Saccharomyces cerevisiae rad53-11; type: organism-based; conditions: in vivo
Saccharomyces cerevisiae [3] = test: Cytotoxicity against Saccharomyces cerevisiae mec1-1; type: organism-based; conditions: in vivo
Saccharomyces cerevisiae [4] = test: Cytotoxicity against Saccharomyces cerevisiae rad52-ku80; type: organism-based; conditions: in vivo
Saccharomyces cerevisiae [5] = test: Cytotoxicity against Saccharomyces cerevisiae rad52; type: organism-based; conditions: in vivo

Row | SMILES | Activity (MCF7) | Activity (NCI-H460) | Activity (SF-268) | Activity (Saccharomyces cerevisiae [1]) | Activity (Saccharomyces cerevisiae [2]) | Activity (Saccharomyces cerevisiae [3]) | Activity (Saccharomyces cerevisiae [4]) | Activity (Saccharomyces cerevisiae [5])
1 | COC(=O)Nc1ccc(C(NC(=O)c2ccccc2)C(=O)O)cc1I (stereo unspecified) | Not Active | Not Active | inactive |  |  |  |  | 
2 | COc1ccc(C(OC(C)=O)C(=O)O)cc1I (stereo unspecified) | Not Active | Not Active | inactive |  |  |  |  | 
3 | CC(C)(C)[Si](Oc1ccc(C(NC(=O)c2ccccc2)C(=O)O)cc1I)(c1ccccc1)c1ccccc1 (stereo unspecified) | Active | Active | Active |  |  |  |  | 
4 | COC(=O)C(NC(=O)c1ccccc1)c1ccc(OC)c(Br)c1 (stereo unspecified) |  |  |  | Active | Active | Active | Active | Active
5 | COc1ccc(C(O)C(=O)O)cc1I (stereo unspecified) | Not Active | Not Active | inactive |  |  |  |  | 
6 | COC(=O)Cc1cc(I)c(OC)c(I)c1 | Not Active | Not Active | inactive |  |  |  |  | 
7 | COC(=O)C(OC(C)=O)c1ccc(OC)c(I)c1 (stereo unspecified) | Not Active | Not Active | inactive |  |  |  |  | 
8 | COC(=O)Cc1ccc(OC)c(I)c1 | Not Active | Not Active | inactive |  |  |  |  | 
9 | COC(=O)C(c1ccc(OC)c(I)c1)N1C(=O)c2ccccc2C1=O (stereo unspecified) | Not Active | Not Active | inactive |  |  |  |  | 
10 | COC(=O)C(Sc1ccccc1)c1ccc(OC)c(I)c1 (stereo unspecified) | Not Active | Not Active | inactive |  |  |  |  | 
11 | O=C(NC(C(=O)O)c1ccc(O)c(I)c1)c1ccccc1 (stereo unspecified) | Not Active | Not Active | inactive |  |  |  |  | 
12 | COC(=O)C(O)c1ccc(OC)c(I)c1 (stereo unspecified) | Not Active | Not Active | inactive |  |  |  |  | 
13 | COC(=O)C(NC(=O)c1ccccc1)c1ccc(OC)c(I)c1 (stereo unspecified) | Active | Active | Active | Active | Active | Active | Active | Active
